Key:
[1] = system: type II diabetes model mice; assay: Amelioration effects on diabetes of xanthoangelol (blood glucose level, serum insulin); assay type: in vivo; conditions: female KK-Ay mice
Procedure: Pathological amelioration effects of xanthoangelol were examined using type II diabetes model mice. Experiments were carried out with five female 12-week old KK-Ay mice (CLEA Japan, Inc.) per group. Xanthoangelol was suspended or dissolved in an olive oil so as to have a concentration of 4% (w/v), and the suspension or solution was forcibly orally administered to the mice once a day at 200 mg/kg for consecutive days. The olive oil was administered to mice in the control group at 5 mL/kg in the same manner. On the day before the beginning of administration, on the fourth day and on the twenty-second day, the blood glucose level was determined in the same manner as in Example 88. In addition, on the twenty-second day, blood was simultaneously collected from abdominal cava, and the insulin concentration in serum was determined with Lebis Insulin Kit (Shibayagi Co., Ltd.). […] During the experimental period, no changes were found in body weight and general symptoms.

KK-Ay mice = assay: Glucose tolerance test, xanthoangelol; assay type: in vivo; conditions: female KK-Ay mice, 200 mg/kg oral once a day
Procedure: Amelioration effects for glucose tolerance of xanthoangelol were examined using female 12-week old KK-Ay mice. Xanthoangelol which was previously suspended or dissolved in an olive oil in a concentration of 4% (w/v) was forcibly orally administered to a group to be administered with xanthoangelol at 200 mg/kg once a day for consecutive days. An olive oil was administered to the mice in the control group at 5 mL/kg in the same manner. The mice were fasted over one night spanning the sixteenth day to the seventeenth day from administration, and the glucose tolerance test was carried out in the same manner as in Example 91.

[2] = system: mature adipocytes (3T3-L1 cells); assay: Glucose uptake enhancement inhibited by cytochalasin B; assay type: cell-based
Procedure: The influence of cytochalasin B on 2-deoxyglucose uptake into matured adipocytes during the stimulation with the sample in the adipocytes was tested in accordance with the method shown in Example 83 on whether or not the enhancing action of 4-hydroxyderricin on glucose uptake shown in Example 83 is inhibited by cytochalasin B, which is an inhibitor of a glucose transporter.
Specifically, as a sample, a group with addition of a dimethyl sulfoxide solution of 4-hydroxyderricin so as to have a final concentration of 7.8 μM was set. Here, there were set a group without addition of the sample as a negative control and a group with addition of insulin so as to have a final concentration of 1 μg/mL as a positive control. Furthermore, there was set a group with addition of cytochalasin B (manufactured by nacalai tesque, 10435-81) to each group so as to have a final concentration of 40 μM in the same time as the time of addition of insulin. Thereafter, 2-deoxy-[1,2-^3H(N)]-glucose subjected to uptake into the adipocytes was determined in the same manner.

[3] = system: type II diabetes model mouse; assay: Glucose tolerance test, 4-hydroxyderricin and combined use with xanthoangelol; assay type: in vivo; conditions: male KK-Ay mice
Procedure: Amelioration effects for glucose tolerance by 4-hydroxyderricin and combined use of 4-hydroxyderricin and xanthoangelol were examined using a type II diabetes model mouse. Experiments were carried out with five male 12-week old KK-Ay mice (CLEA Japan, Inc.) per group. 4-Hydroxyderricin which was previously suspended or dissolved in an olive oil so as to have a concentration of 4% (w/v) was forcibly orally administered to a group to be administered with 4-hydroxyderricin at 200 mg/kg once a day for consecutive days. 4-Hydroxyderricin and xanthoangelol which were each suspended or dissolved in an olive oil to 4% (w/v) were mixed in equal volumes, and the mixture was forcibly orally administered to a group to be administered with a combined use of 4-hydroxyderricin and xanthoangelol once a day for consecutive days so that each administration concentration became 100 mg/kg. An olive oil was administered to the mice in the control group at 5 mL/kg in the same manner. The mice were fasted over one night spanning from the fifteenth day to the sixteenth day from administration, and a glucose tolerance test was carried out. Four hours after the administration of the sample, a 10% glucose solution was intraperitoneally administered at 1 g/kg. Thirty minutes before glucose tolerance and 30 minutes after the tolerance, blood was collected from veins of the tail, and the blood glucose level was determined with a simple blood glucose meter, ACCU-CHEK Compact (Roche Diagnostic K.K.).

[4] = 200 mg/kg oral once a day in olive oil, mean ± standard error

CC(C)=CCC/C(C)=C/Cc1c(O)ccc(C(=O)/C=C/c2ccc(O)cc2)c1O [Xanthoangelol, 4,2′,4′-Trihydroxy-3′-geranylchalcone]
action of ameliorating insulin resistance ([1]; 200 mg/kg oral once a day): action of ameliorating insulin resistance was found | blood glucose level and insulin concentration (in words) ([1]; 200 mg/kg oral once a day): lowered | Blood Glucose Level, Fourth Day [1, 4]: 192 ± 16 mg/dL | Blood Glucose Level, Twenty-second Day [1, 4]: 209 ± 8 mg/dL | changes in body weight and general symptoms ([1]; 200 mg/kg oral once a day, experimental period): no changes | Blood Glucose Level, Previous Day ([1]; day before beginning of administration, 200 mg/kg oral once a day in olive oil, mean ± standard error): 249 ± 13 mg/dL | Insulin (concentration in serum) ([1]; twenty-second day, 200 mg/kg oral once a day in olive oil, mean ± standard error): 31 ± 7 ng/mL | action on the elevation in the blood glucose level after the glucose tolerance (in words) (KK-Ay mice): suppressive action | Blood Glucose Level, Before Glucose Tolerance (KK-Ay mice; seventeenth day, fasted): 106 ± 7 mg/dL | Blood Glucose Level, 30 Minutes After Tolerance (KK-Ay mice; seventeenth day, fasted, glucose 1 g/kg i.p.): 234 ± 15 mg/dL

COc1ccc(C(=O)/C=C/c2ccc(O)cc2)c(O)c1CC=C(C)C [4-Hydroxyderricin, 4,2′-Dihydroxy-3′-prenyl-4′-methoxychalcone]
2-deoxy-[1,2-3H(N)]-glucose uptake ([2]; 4-hydroxyderricin 7.8 μM, compared to the negative control): enhancement of 2-deoxy-[1,2-^3H(N)]-glucose uptake | 2-deoxy-[1,2-3H(N)]-glucose uptake on addition of cytochalasin B ([2]; cytochalasin B 40 μM added to the 4-hydroxyderricin 7.8 μM, insulin 1 μg/mL and negative control groups): almost completely inhibited | amelioration effects for glucose tolerance (in words) ([3]; 4-hydroxyderricin 200 mg/kg alone or combined use 100 mg/kg each): amelioration effects for glucose tolerance were found | Blood Glucose Level, Before Glucose Tolerance ([3]; 200 mg/kg oral once a day, sixteenth day, fasted, 30 minutes before glucose 1 g/kg i.p.): 93 ± 2 mg/dL | Blood Glucose Level, 30 Minutes After Tolerance ([3]; 200 mg/kg oral once a day, sixteenth day, fasted, glucose 1 g/kg i.p.): 224 ± 11 mg/dL

From patent US20070092551A1, “Therapeutic agent” (TAKARA BIO INC., priority 2003, published 2007)
